Reference: US20120003270A1, “6-SUBSTITUTED ISOFLAVONOID COMPOUNDS AND USES THEREOF” (priority 2008, published 2012)
Marks after values point to notes of the source that are not given here.

Assays:
[1] = test system: serum-treated zymozan air pouch inflammation; assay: Rat air pouch assay; type: in vivo; conditions: for Cells in lavage fluid (×10^−7): intrapouch, mean ± SD; for Cells in lavage fluid (×10^−7) / PMN in tissue sections (per 100 squares): 4 h after STZ; for PMN in tissue sections (per 100 squares): pouch wall
Experimental: Air pouches were raised on the dorsum of female Dark Agouti rats, approximately seven weeks of age. To promote the formation of a cellular membrane lining the inside of each pouch, the pouches were maintained by re-inflating on days 2 and 5 after the initial injection of air. On re-inflation, the pouch was first deflated to ensure the needle was positioned correctly, before being re-inflated with 2 mL of sterile air. Using this protocol, the pouches remained inflated until use on day 7, when they were injected with 0.5 ml of either test compound or vehicle control. After 15 min, air pouches were injected with serum-treated zymozan (STZ—500 μg). Lavage of the air pouch (4×2 ml lavages) was performed at 4 h and leucocytes counted, after which the rats were killed, the air pouch excised and processed in formalin for histology. The sections were blinded to the person counting. Using a graticule with 100 squares and the 40× objective, the number of polymorphs (PMN) was counted in the pouch lining at 10 different and non-adjacent sites. Group sizes were 5-6 rats. Data were analysed for statistical significance within each experiment and using an unpaired t test. Compounds (1) and (3) were examined in this assay.

[2] = test system: TXA2; assay: TXA2 synthesis in RAW 264.7 (ELISA); type: cell-based, mouse; conditions: LPS 50 ng/ml, 16 hrs
Experimental: (§1) The mouse macrophage cell line RAW 264.7 was cultured in DMEM supplemented with foetal calf serum (FCS), 2 mM glutamine and 50 U/ml penicillin/streptomycin. Cells were treated with either test compounds (in 0.025% DMSO) or vehicle alone, and added one hour before 50 ng/ml LPS. After incubation for 16 hrs, culture media was collected for PGE2 or TXB2 measurement by ELISA (Cayman Chemical), and TNFα measurement using an ELISA (Becton Dickinson).

[3] = test system: PMA-induced ear swelling; assay: Murine ear inflammation assay, PMA; type: in vivo, mouse; conditions: 25 mg/kg i/p; for Change in ear thickness (mean ± SD, ×0.01 mm): 5 hr after PMA
Experimental: Groups of 5-6 female BALB/c mice (ARC, WA, Australia), weighing 15-21 g were injected intraperitoneally (i/p) with selected compounds of the formula (I) at 25 mg/kg delivered in polyethylene glycol (PEG) 400: phosphate buffered saline (PBS) 1:1 or ethanol: propanediol:PBS 4:9:7 either 30 min prior to or immediately before the inflammogen was applied to the ears. Mice were anaesthetised using isoflurane and baseline thickness of both ears was measured using a spring micrometer. Each mouse received a total of […] of either AA in ethanol (50 mg/ml or 200 mg/ml) or PMA in either ethanol or acetone (0.2 mg/ml) applied to the inner and outer surfaces of each pinna (i.e. 0.5 mg or 2 mg AA or 2 μg PMA per ear). Mice were anaesthetised again to re-measure the ears at 1 hr post-AA application and 5 hr after PMA. The difference in ear swelling pre- and post-application of inflammogen for each ear was calculated, and the average for the two ears of each mouse taken. The difference in mean swelling of each test group compared to the group given vehicle alone was calculated using a general ANOVA using Dunnett's Multiple Comparison test when multiple compounds were tested in the one experiment or a two-tailed unpaired t-test when only one compound was tested (Prism 4, Graphpad Software).

[4] = test system: TNFα; assay: TNFα synthesis in RAW 264.7 (ELISA); type: cell-based, mouse; conditions: LPS 50 ng/ml, 16 hrs
Experimental: as §1

[5] = test system: splenocytes (T and B cells); assay: Mitogen-stimulated splenocyte proliferation (MTT); type: cell-based, mouse; conditions: 10 μM, 3 day incubation, ConA or LPS
Experimental: Male Skh-1:HR1 (hairless) mice, approximately six weeks old were killed by cervical dislocation. Single cell suspensions were made from the spleen and erythrocytes were lysed in buffer (0.14M NH4Cl, 17 mM Tris, pH 7.2). The remaining splenocytes were cultured in RPMI-1640 (Gibco) supplemented with 10% (v:v) FBS, 200 mM L-glutamine, penicillin/streptomycin and […] 2-mercaptoethanol. Splenocytes were added to quadruplicate wells containing either concanavalin A (ConA, Sigma-Aldrich—0.4 μg/well), LPS (Sigma-Aldrich—1 μg/well) or no mitogen, as well 10 μM of test compound in DMSO. Samples were analysed after a 3 day incubation at 37° C. in 5% CO2 in air. Methylthiazoletetrazolium (MTT) is bioreduced by viable cells into a coloured formazan product that is soluble in DMSO. Thus the quantity of formazan product is directly proportional to the number of living cells in culture, and can be measured using a spectrophotometer at 570 nm. MTT was added to each well, incubated for a further 4 hrs and then colour developed with 0.04N HCl in isopropanol. Culture supernatants were stored after collection at −80° C. and both T and B cells analysed by ELISA (BD Biosciences) for IFN-γ (a Th-1 cytokine) and for T cells alone, IL-6 (a Th-2 cytokine).

[6] = Pharmacokinetics after a single oral dose in mice; type: in vivo, mouse; conditions: urine, oral 25 mg/kg; for AUC: mouse
[7] = test system: HUVECs; assay: Microscopic appearance of HUVECs; type: cell-based, human
Experimental: An effect on cell growth was observed microscopically at 100 μM but not at the lower doses. Normal HUVECs were predominantly epithelioid but included some spindle shaped cells. Cells were mainly healthy and viable, as indicated by their translucent appearance and adherence to the culture dish. Floating cells were presumed non-viable.

[8] = treated rats compared with controls

Compound	Cells in lavage fluid (×10^−7) [1]	PMN in tissue sections (per 100 squares) [1]	TXB2 ([2]; 1 μM)	TXB2 ([2]; 10 μM)	% Change compared with vehicle [3]	Change in ear thickness (mean ± SD, ×0.01 mm) [3]	TNFα ([4]; 1 μM)	TNFα ([4]; 10 μM)	Effect on splenocyte (T and B cell) numbers [5]	AUC [6]	[max]free (μM, mean ± SD) [6]	Microscopic appearance of treated cells [7]	Number of extravasated PMN in the pouch wall, fold less than controls [1, 8]	Number of exudate cells in the pouch cavity, fold less than controls [1, 8]
O=C(O)C1CCCN1Cc1cc2c(cc1O)OCC(c1ccc(O)cc1)=C2 (centres unmarked) [Compound (3)]	1.73 ± 0.84 ×10^−7	35.85 ± 12.89 per 100 squares	374.8 ± 132.29 pg/mL	287.04 ± 75.58 pg/mL	0%	37.9 ± 2.6 ×0.01 mm	26677.52 ± 815.64 pg/mL	45429.44 ± 1630.68 pg/mL	little effect on cell numbers	34 µM·h	3.9 ± 2.4 µM	appeared healthy		
CN(C)Cc1cc2c(cc1O)OCC(c1ccc(O)cc1)=C2 [Compound (1)]	0.43 ± 0.21^b ×10^−7	13.03 ± 7.10 per 100 squares	1333.17 ± 121.78 pg/mL	1149.14 ± 480.27 pg/mL	−12.3%	28.9 ± 3.071 ×0.01 mm	40002.31 ± 694.8 pg/mL	41958.94 ± 837.04 pg/mL	markedly and significantly immunosuppressive to T cells and to a lesser extent, B cells	9.3 µM·h	5.6 ± 6.7 µM	appeared healthy	more than 3 fold	more than 3 fold
